According to publication PMC9949657 (PLOS ONE, 2023):

Key:
[1] = test system: mouse collagen-induced arthritis (CIA) model; test: Mouse CIA model, arthritis score of hind paws (21-day treatment); format: in vivo; details: Prednisolone 3 mg/kg oral once daily
Description: (§1) For the mouse CIA model, male DBA/1JNCrlj mice (7 weeks old) were injected with complete Freund’s adjuvant (CFA) (BD Biosciences) containing 2 mg/mL of bovine type II collagen at a site on the back (each 0.1 mL) and were boosted 21 days later in a similar manner. Arthritis scores were determined as previously reported.

[2] = test system: mouse collagen-induced arthritis (CIA) model; test: Micro-CT imaging in the CIA model (BMD); format: in vivo; details: for BMD: Prednisolone 3 mg/kg oral once daily
Description: as §1
The bone morphology of CIA mice was evaluated via micro-CT using Cosmo Scan (Rigaku, Tokyo, Japan). Hind paws of the mice were scanned using the following scanning conditions: 90 kV; 88 μA; field of view, 25 mm; 2 min. The BMD was calculated using the Analyze version 11.0 software (Biomedical Imaging Resource, Mayo Clinic, Rochester, MN). The bone was determined to have a BMD value ≥480 mg/cm^3, and the region of interest for calculating the BMD included the talus and cuboid. BMD was calibrated using a QRM-MicroCT-HA phantom (Quality Assurance in Radiology and Medicine, Moehrendorg, Germany) that was scanned on each day when micro-CT of animals was performed. Calibration was performed via scanning phantoms with densities of 0, 50, 200, 800, and 1200 mg HA/cm^3, and data analysis was performed using the Analyze11.0 Bone Mineral Density Analysis procedure.

[3] = test system: mouse collagen-induced arthritis (CIA) model; test: Mouse CIA model, arthritis score (15-day treatment); format: in vivo; details: Prednisolone 3 mg/kg oral once daily
Description: as §1

[4] = test system: mouse collagen-induced arthritis (CIA) model; test: Histopathological evaluation in the mouse CIA model; format: in vivo; details: Prednisolone 3 mg/kg oral, 15 days
Description: as §1
On the day after the final administration, the four limbs of each mouse were harvested and decalcified in […]. The specimens were then embedded in paraffin blocks, cut into sections, stained with hematoxylin and eosin, and randomly selected for microscopic examination. Histopathological assessments were performed as described previously. This experiment was carried out in the laboratory of the BoZo Research Center Inc. (Ibaraki, Japan).

[5] = test system: rat collagen-induced arthritis (CIA) model; test: Rat CIA model, hind paw volume; format: in vivo; set-up: unit not given beside the values; details: Prednisolone 1 mg/kg oral once daily
Description: For the rat CIA model, experimental arthritis was induced and volumes of both hind paws were measured as previously described.

[6] = test system: ovariectomized cynomolgus monkeys; set-up: method as in PMID 21497676; details: cited from earlier work
patients with RA = test system: patients with RA; set-up: method as in PMID 31036625; details: compared with placebo, clinical trials for RA; cited from earlier work

With C[C@]12C=CC(=O)C=C1CC[C@@H]1[C@@H]2[C@@H](O)C[C@@]2(C)[C@H]1CC[C@]2(O)C(=O)CO [Prednisolone, prednisolone] the “Arthritis score of hind paws” value ([1]; day 1) was 7.33, the “Arthritis score of hind paws” value ([1]; day 8) was 6.58 and the “Arthritis score of hind paws” value ([1]; day 14) was 5.75. The “Arthritis score of hind paws” value ([1]; day 22) was 4.75, the BMD ([2]; day 1) was 957.82 mg/mL and the BMD ([2]; day 8) was 961.86 mg/mL. The BMD ([2]; day 14) was 984.25 mg/mL, the BMD ([2]; day 22) was 1000.83 mg/mL and the “decline in BMD, effect compared with vehicle” value ([2]; Prednisolone 3 mg/kg/day, 21 days) was “did not exhibit significant therapeutic effects”. For the same compound, the Arthritis score ([3]; day 1) was 6.63, the Arthritis score ([3]; day 4) was 7.88 and the Arthritis score ([3]; day 8) was 8.38. For the same compound, the Arthritis score ([3]; day 11) was 7.88, the Arthritis score ([3]; day 15) was 2.88 and the “Histological score, Bone damage” value [4] was 3.50. For the same compound, the “Histological score, Cartilage damage” value [4] was 4.75, the “Histological score, Inflammation” value [4] was 5.25 and the “Histological score, Pannus” value [4] was 4.13. The Hind paws volume ([5]; day 0) was 2.1, the Hind paws volume ([5]; day 4) was 2.12 and the Hind paws volume ([5]; day 7) was 2.09. The Hind paws volume ([5]; day 11) was 2.16, the Hind paws volume ([5]; day 14) was 2.18 and the Hind paws volume ([5]; day 18) was 2.25. For the same compound, the Hind paws volume ([5]; day 21) was 2.37.

For “denosumab: anti-human RANKL monoclonal antibody”, the “BMD and bone strength” value [6] is listed as “improved” and the bone erosion progression (patients with RA) is listed as “inhibited”.
